Assay results from patent US9113629B2, “4-amino-6-(4-substituted-phenyl)-picolinates and 6-amino-2-(4-substituted-phenyl)-pyrimidine-4-carboxylates and their use as herbicides” (DOW AGROSCIENCES LLC, priority 2013, dated 2015).
Read-outs that look alike come from different tables or passages of the source.

Legend:
[1] = system: Key Broadleaf Weed and Crop Species; experiment: Post-emergent Test II herbicidal activity (Table 5); assay type: in vivo; details: post-emergence, 336 h, 14 days after application; for pest or weed control at 70 g/ha: application rate 70 g ai/ha; for pest or weed control at 140 g/ha: application rate 140 g ai/ha
In short: (§1)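 Greenhouse post-emergent assay: seedlings (first/second true leaf) in Metro-Mix 360 were sprayed at 187 L/ha at a top rate plus twofold dilutions down to 1/16×; solvent-blank controls were included. Percent visual injury was read at 14 d.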

[2] = system: Key Grass and Sedge Weeds as well as Grass Crops; experiment: Post-emergent Test II herbicidal activity (Table 6); assay type: in vivo; details: post-emergence, 336 h; for pest or weed control at 70 g/ha: 70 g ai/ha; for pest or weed control at 140 g/ha: 140 g ai/ha
In short: as §1

[3] = ABUTH: velvetleaf (Abutilon theophrasti), read-out: Visual Growth Reduction (%) 14 Days After Application, ABUTH
[4] = AMARE: redroot pigweed (Amaranthus retroflexus), read-out: Visual Growth Reduction (%) 14 Days After Application, AMARE
[5] = BRSNN: oilseed-rape, canola (Brassica napus), read-out: Visual Growth Reduction (%) 14 Days After Application, BRSNN
[6] = CHEAL: lambsquarters (Chenopodium album), read-out: Visual Growth Reduction (%) 14 Days After Application, CHEAL
[7] = EPHHL: wild poinsettia (Euphorbia heterophylla), read-out: Visual Growth Reduction (%) 14 Days After Application, EPHHL
[8] = HELAN: sunflower (Helianthus annuus), read-out: Visual Growth Reduction (%) 14 Days After Application, HELAN
[9] = VIOTR: wild pansy (Viola tricolor), read-out: Visual Growth Reduction (%) 14 Days After Application, VIOTR
[10] = CYPES: yellow nutsedge (Cyperus esculentus), read-out: Visual Growth Reduction (%) 14 Days After Application, CYPES
[11] = DIGSA: crabgrass (Digitaria sanguinalis), read-out: Visual Growth Reduction (%) 14 Days After Application, DIGSA
[12] = ECHCG: barnyardgrass (Echinochloa crus-galli), read-out: Visual Growth Reduction (%) 14 Days After Application, ECHCG
[13] = ORYSA: rice (Oryza sativa), crop, read-out: Visual Growth Reduction (%) 14 Days After Application, ORYSA
[14] = SETFA: giant foxtail (Setaria faberi), read-out: Visual Growth Reduction (%) 14 Days After Application, SETFA
[15] = SORVU: grain sorghum (Sorghum vulgare), read-out: Visual Growth Reduction (%) 14 Days After Application, SORVU
[16] = TRZSS (wheat, Triticum aestivum), crop, read-out: Visual Growth Reduction (%) 14 Days After Application, TRZSS
[17] = ZEAMX: maize, corn (Zea mays), crop, read-out: Visual Growth Reduction (%) 14 Days After Application, ZEAMX

SMILES | pest or weed control at 70 g/ha [1, 3] [%] | pest or weed control at 140 g/ha [1, 3] [%] | pest or weed control at 70 g/ha [1, 4] [%] | pest or weed control at 140 g/ha [1, 4] [%] | pest or weed control at 70 g/ha [1, 5] [%] | pest or weed control at 140 g/ha [1, 5] [%] | pest or weed control at 70 g/ha [1, 6] [%] | pest or weed control at 140 g/ha [1, 6] [%] | pest or weed control at 70 g/ha [1, 7] [%] | pest or weed control at 140 g/ha [1, 7] [%] | pest or weed control at 70 g/ha [1, 8] [%] | pest or weed control at 140 g/ha [1, 8] [%] | pest or weed control at 70 g/ha [1, 9] [%] | pest or weed control at 70 g/ha [2, 10] [%] | pest or weed control at 140 g/ha [2, 10] [%] | pest or weed control at 70 g/ha [2, 11] [%] | pest or weed control at 140 g/ha [2, 11] [%] | pest or weed control at 70 g/ha [2, 12] [%] | pest or weed control at 140 g/ha [2, 12] [%] | pest or weed control at 70 g/ha [2, 13] [%] | other results
C=Cc1c(C(=O)O)nc(-c2ccc(Cl)c(F)c2)c(F)c1N [Compound 214] | 95 to 100 | 95 to 100 | 95 to 100 | 95 to 100 | 95 to 100 | 95 to 100 | 95 to 100 | 95 to 100 | 95 to 100 | 95 to 100 | 95 to 100 | 95 to 100 | 75 to 84 | 95 to 100 | 95 to 100 | 0 to 29 | 0 to 29 | 95 to 100 | 95 to 100 | 0 to 29 | pest or weed control at 140 g/ha [1, 9]: 75 to 84%; pest or weed control at 140 g/ha [2, 13]: 45 to 59%; pest or weed control at 70 g/ha [2, 14]: 0 to 29%; pest or weed control at 140 g/ha [2, 14]: 30 to 44%; pest or weed control at 70 g/ha [2, 15]: 75 to 84%; pest or weed control at 140 g/ha [2, 15]: 85 to 94%; pest or weed control at 70 g/ha [2, 16]: 0 to 29%; pest or weed control at 140 g/ha [2, 16]: 0 to 29%; pest or weed control at 70 g/ha [2, 17]: 85 to 94%; pest or weed control at 140 g/ha [2, 17]: 85 to 94%
C=Cc1c(C(=O)OC)nc(-c2ccc(Cl)c(F)c2)c(F)c1N [Compound 215, methyl 4-amino-6-(4-chloro-3-fluorophenyl)-5-fluoro-3-vinylpicolinate] | 95 to 100 | 95 to 100 | 95 to 100 | 95 to 100 | 95 to 100 | 95 to 100 | 95 to 100 | 95 to 100 | 95 to 100 | 95 to 100 | 95 to 100 | 95 to 100 | 0 to 29 | 95 to 100 | 95 to 100 | 0 to 29 | 0 to 29 | 0 to 29 | 95 to 100 | 0 to 29 | pest or weed control at 140 g/ha [2, 13]: 0 to 29%; pest or weed control at 70 g/ha [2, 14]: 0 to 29%; pest or weed control at 140 g/ha [2, 14]: 0 to 29%; pest or weed control at 70 g/ha [2, 15]: 45 to 59%; pest or weed control at 140 g/ha [2, 15]: 60 to 74%; pest or weed control at 70 g/ha [2, 16]: 0 to 29%; pest or weed control at 140 g/ha [2, 16]: 0 to 29%; pest or weed control at 70 g/ha [2, 17]: 30 to 44%; pest or weed control at 140 g/ha [2, 17]: 45 to 59%
